# Measured values taken from patent US4075332A (priority 1976, dated 1978).
# Where two headings read alike, the source gives them in different places.
# What was measured:
# [1] = test system: Bean aphids; assay: whole plant or invertebrate; conditions: Aphis fabae, 48 h
# [2] = test system: Spider mites; assay: Mite, Systemic; format: in vivo, two-spotted mite; conditions: Tetranychus urticae
# Protocol: (§1) In the insecticidal and miticidal tests, the experimental compounds were tested as aqueous emulsions. These emulsions were prepared by dissolving the compound in acetone and dispersing it in distilled water with Triton X-100, an alkylaryl polyether alcohol derived by the reaction of i-octylphenol with ethylene oxide, to give spray emulsions containing the desired concentrations of the compound. These emulsions were then used in standard laboratory tests described below.
# Mite, Systemic: Bean plants infested with the two-spotted mites were treated by applying 20 ml. of the formulated test chemical to the soil.
# [3] = test system: Mexican bean beetle; assay: whole plant or invertebrate; conditions: Epilachna varivestis
# [4] = test system: Spider mites; assay: whole plant or invertebrate; conditions: Tetranychus urticae
# [5] = test system: House fly; assay: whole plant or invertebrate; conditions: Musca domestica, 48 h
# [6] = test system: Bean aphids; assay: Aphid, Systemic; format: in vivo, bean aphid; conditions: Aphis fabae, 48 h
# Protocol: as §1
# Aphid, Systemic: Nasturtium plants infested with the bean aphid were treated by applying 20 ml. of the formulated test chemical to the soil. The degree of aphid control was rated after 2 days.
# [7] = test system: Root-knot nematode; conditions: in vivo
# [8] = test system: Corn rootworm larvae; assay: whole plant or invertebrate; conditions: soil, 120 h
# [9] = test system: Southern army worm; conditions: in vivo
# [10] = test system: Bollworm larvae; assay: Bollworm test on cotton plants; format: in vivo; conditions: Helicoverpa zea, Table XIV, 0.5 lbs/acre
# Protocol: Bollworms: Bollworm larvae used in the present study were progeny of adult moths collected from light traps stationed in cotton fields. The larvae were reared on the Vanderzant-Adkisson Special Wheat Germ Diet for Insects. This diet was fortified with Vanderzant's Insect Vitamin Fortification. The diet and the vitamin fortification were obtaind from Nutritional Biochemicals Corporation, Cleveland, Ohio. The larvae were reared and tested in continuous illumination at 78±5° […]. Only third and fourth instar larvae which weighed between 25 and 60 mg. were used in the tests.
# Insecticidal sprays were made by the conventional low-volume (CLV) method. CLV sprays were applied through a 6X hollow-cone nozzle calibrated to deliver the equivalent of 3.5 ga./acre of the water/emulsion spray mixture. Sprays were applied to individual cotton plants grown in one gallon buckets. After treatment the plants were allowed to dry for 1 to 2 hours in the open air before being transported to a holding room. The larvae were placed on the treated leaf surfaces and held singly in small snap-on type plastic screen cages of about 11/2 inches in diameter. Untreated control groups were maintained for each test replicate so that treatment mortalities could be adjusted according to Abbott's formula. Treatments were replicated 3 times. Each replicate contained 20 larvae. […]
# [11] = test system: Southern army worm; assay: whole plant or invertebrate; conditions: Spodoptera eridania, read-out: Mortality, % - Southern ArmyWorm
# [12] = Thermal stability of products (GC / nmr observation); format: physicochemical; conditions: general statement
# Text: The corresponding primary alkyl derivatives such as the S'-n-propyl compound are stable under similar conditions.
# The ethyl sulfinylmethyl product was unstable at room temperature.
# [13] = in vivo; conditions: rat, po
# [14] = read-out: Mortality, % - Bean Aphids Contact
# [15] = read-out: Mortality, % - Spider Mites Systemic
# [16] = read-out: Mortality, % - Mexican Bean Beetles
# [17] = 48 h, read-out: Mortality, % - Spider Mites Contact
# [18] = read-out: Mortality, % - Bean Aphids Systemic
# [19] = read-out: Mortality Produced, % -
# [20] = read-out: Mortality Produced, % - Spider Mites Systemic
# [21] = read-out: Mortality Produced, % - Mex.Bean Beetle
# [22] = 48 h, read-out: Mortality Produced, % - Spider Mites Contact
# [23] = read-out: Mortality Produced, % - House Flies
# [24] = read-out: Mortality Produced, % - Bean Aphids Systemic
# [25] = read-out: Mortality Produced, % - Bean Aphids Contact
# [26] = 24 h, read-out: Per Cent Mortality (24 hours After Application)
# [27] = 48 h, read-out: Per Cent Mortality (48 hours After Application)
# [28] = 72 h, read-out: Per Cent Mortality (72 hours After Application)
# [29] = read-out: Mortality, % - Mexican Bean Beetle
compound,measurement,setting,value
"CCCSCCSP(=O)(OCC)SCCC (stereo not drawn) [Example 2, O-Ethyl S-1-Propyl S'-2-n-Propylthioethyl Dithiophosphate]",mortality at 250 ppm,[1]; [14],90%
same,mortality at 250 ppm,[2]; [15],100%
same,mortality at 250 ppm,[3]; [16],100%
same,mortality at 250 ppm,[4]; [17],100%
same,mortality at 250 ppm,"[5]; read-out: Mortality, % - House Flies",100%
same,mortality at 250 ppm,[6]; [18],75%
"CCCSP(=O)(OCC)SCC(C)SC(C)C (stereo not drawn) [Example 35, O-Ethyl S-1-Propyl S'-2-i-Propylthiopropyl Dithiophosphate]","Nematode Control,%",[7],100%
same,mortality at 2.5 ppm,"[8]; read-out: Corn Rootworm Mortality,%",70%
same,mortality at 50 ppm,"[1]; read-out: Bean Aphids Mortality,%",50%
same,"S.Armyworm Mortality,%",[9],100%
same,mortality at 50 ppm,"[3]; read-out: Mexican Bean Beetles Mortality,%",100%
same,mortality at 10 ppm,"[4]; read-out: Spider Mites Mortality,%",100%
"CCCOP(=O)(SCCC)SCC(C)SC (stereo not drawn) [Example 43, O,S-Di-n-propyl S'-2-Methylthiopropyl dithiophosphate]",mortality at 50 ppm,[1]; [19],80%
same,mortality at 250 ppm,[1]; [19],80%
same,mortality at 50 ppm,[2]; [20],0%
same,mortality at 250 ppm,[2]; [20],100%
same,"Mortality Produced, % - S.Army Worm",[9]; southern armyworm,0%
same,mortality at 50 ppm,[3]; [21],80%
same,mortality at 250 ppm,[3]; [21],100%
same,mortality at 50 ppm,[4]; [22],50%
same,mortality at 250 ppm,[4]; [22],100%
same,mortality at 50 ppm,[5]; [23],70%
same,mortality at 250 ppm,[5]; [23],100%
same,mortality at 50 ppm,[6]; [24],0%
same,mortality at 250 ppm,[6]; [24],20%
"CCCCSP(=O)(OCC)SCC(C)SC (stereo not drawn) [Example 41, O-Ethyl S-1-Butyl S'-Methylthiopropyl Dithiophosphate]",mortality at 50 ppm,[1]; [25],60%
same,mortality at 250 ppm,[1]; [25],100%
same,mortality at 50 ppm,[2]; [20],0%
same,mortality at 250 ppm,[2]; [20],100%
same,"Mortality Produced, % - S.Army Worm",[9]; southern armyworm,0%
same,mortality at 50 ppm,[3]; [21],80%
same,mortality at 250 ppm,[3]; [21],100%
same,mortality at 50 ppm,[4]; [22],100%
same,mortality at 250 ppm,[4]; [22],100%
same,mortality at 50 ppm,[5]; [23],0%
same,mortality at 250 ppm,[5]; [23],100%
same,mortality at 50 ppm,[6]; [24],0%
same,mortality at 250 ppm,[6]; [24],40%
"CCOP(=O)(SCC(C)SC)SC(C)C (stereo not drawn) [Example 42, O-Ethyl S-2-Propyl S-2-Methylthiopropyl Dithiophosphate]",mortality at 50 ppm,[1]; [25],50%
same,mortality at 250 ppm,[1]; [25],100%
same,mortality at 50 ppm,[2]; [20],0%
same,mortality at 250 ppm,[2]; [20],100%
same,mortality at 50 ppm,[3]; [21],100%
same,mortality at 250 ppm,[3]; [21],100%
same,mortality at 50 ppm,[4]; [22],100%
same,mortality at 250 ppm,[4]; [22],100%
same,mortality at 50 ppm,[5]; [23],0%
same,mortality at 250 ppm,[5]; [23],100%
same,mortality at 50 ppm,[6]; [24],20%
same,mortality at 250 ppm,[6]; [24],80%
CCCSC(C)CSP(=O)(OCC)SCCC (stereo not drawn) [drawing 54],mortality at 560.425 g/ha,[10]; [26],87%
same,mortality at 560.425 g/ha,[10]; [27],94%
same,mortality at 560.425 g/ha,[10]; [28],99%
"CCCSP(=O)(OCC)SCC(CC)SC (stereo not drawn) [Example 38, O-Ethyl S-1-Propyl S'-2-Methylthiobutyl Dithiophosphate]",Nematodes Control % at 25 lb/acre,[7],90%
same,mortality at 2.5 ppm,"[8]; read-out: Corn Rootworm Mortality, % at 2.5 ppm",40%
same,mortality at 50 ppm,"[1]; read-out: Mortality Produced at 50 ppm, % - Bean Aphids",100%
same,"Mortality Produced at 50 ppm, % - Southern Army Worm",[9]; southern armyworm,80%
same,mortality at 50 ppm,"[3]; read-out: Mortality Produced at 50 ppm, % - Mexican Bean Beetles",10%
same,mortality at 50 ppm,"[4]; read-out: Mortality Produced at 50 ppm, % - Spider Mites",100%
same,mortality at 50 ppm,"[5]; read-out: Mortality Produced at 50 ppm, % - Houseflies",100%
"CCCSP(=O)(OCC)SCCSc1ccc(Cl)cc1 (stereo not drawn) [Example 5, O-Ethyl S-1-Propyl S'-2-p-Chlorophenylthioethyl Dithiophosphate]",mortality at 250 ppm,[1]; [14],95%
same,mortality at 250 ppm,[2]; [15],40%
same,mortality at 250 ppm,[3]; [16],100%
same,mortality at 250 ppm,[4]; [17],100%
same,mortality at 250 ppm,[6]; [18],10%
"CCCSP(=O)(OCC)SCCSC(C)C (stereo not drawn) [Example 3, O-Ethyl S-1-Propyl S'-2-i-Propylthioethyl Dithiophosphate]",mortality at 250 ppm,[1]; [14],70%
same,mortality at 250 ppm,[11],100%
same,mortality at 250 ppm,[2]; [15],85%
same,mortality at 250 ppm,[3]; [16],100%
same,mortality at 250 ppm,[4]; [17],100%
"CCOP(=O)(SCSCC)SCC(C)C (stereo not drawn) [Example 12, O-Ethyl S-Isobutyl S'Ethylthiomethyl Dithiophosphate]",thermal stability,[12],thermal instability
CCOP(=S)(OCC)SCC(C)SC (stereo not drawn) [reference compound],LD50 at 336 h,[13],25 to 50 mg/kg
"CCOP(=S)(OCC)SCSc1ccc(Cl)cc1 [Trithion, reference compound]","Southern Army Worm Mortality, %",[9]; southern armyworm,0%
same,mortality at 100 ppm,"[3]; read-out: Mexican Bean Beetle Larvae Mortality, %",90%
same,mortality at 20 ppm,"[5]; read-out: House Fly Spray Mortality, % (at 20 ppm)",80%
CCCSP(=O)(OCC)SCC(C)SC (stereo not drawn) [drawing 53],mortality at 560.425 g/ha,[10]; [26],84%
same,mortality at 560.425 g/ha,[10]; [27],96%
same,mortality at 560.425 g/ha,[10]; [28],96%
CCCSP(=O)(OCC)SCCSC (stereo not drawn) [drawing 52],mortality at 560.425 g/ha,[10]; [26],72%
same,mortality at 560.425 g/ha,[10]; [27],80%
same,mortality at 560.425 g/ha,[10]; [28],89%
"CCOP(=O)(SCC(C)C)SCC(C)SC (stereo not drawn) [Example 37, O-Ethyl S-2-Methylpropyl S'-2-Methylthiopropyl Dithiophosphate]",mortality at 50 ppm,[1]; [25],10%
same,mortality at 250 ppm,[1]; [25],100%
same,mortality at 50 ppm,[2]; [20],100%
same,mortality at 250 ppm,[2]; [20],100%
same,mortality at 50 ppm,[3]; [21],100%
same,mortality at 250 ppm,[3]; [21],100%
same,mortality at 50 ppm,[4]; [22],60%
same,mortality at 250 ppm,[4]; [22],100%
same,mortality at 50 ppm,[5]; [23],45%
same,mortality at 250 ppm,[5]; [23],100%
same,mortality at 50 ppm,[6]; [24],70%
same,mortality at 250 ppm,[6]; [24],100%
"CCCSP(=O)(OCC)SCC(C)S(C)(=O)=O (stereo not drawn) [Example 9, O-Ethyl S-1-Propyl S'-2-Methylsulfonylpropyl Dithiophosphate]","Nematode Control,% at 25 lb/acre",[7],80%
same,mortality at 250 ppm,[1]; [14],90%
same,mortality at 250 ppm,[11],100%
same,mortality at 250 ppm,[2]; [15],90%
same,mortality at 250 ppm,[3]; [29],100%
same,mortality at 250 ppm,[4]; [17],90%
same,mortality at 250 ppm,[6]; [18],95%
"CCCSP(=O)(OCC)SCCS(C)(=O)=O (stereo not drawn) [Example 7, O-Ethyl S-1-Propyl S'-(2-Methylsulfonylethyl) Dithiophosphate]",LD50 at 336 h,[13],> 100 mg/kg
same,"Nematode Control,% at 25 lb/acre",[7],100%
same,mortality at 250 ppm,[1]; [14],100%
same,mortality at 250 ppm,[11],100%
same,mortality at 250 ppm,[2]; [15],100%
same,mortality at 250 ppm,[3]; [29],100%
same,mortality at 250 ppm,[4]; [17],100%
same,mortality at 250 ppm,[6]; [18],100%
"CCCSP(=O)(OC)SCC(C)SC (stereo not drawn) [Example 40, O-Methyl S-1-Propyl S'-2-Methylthiopropyl Dithiophosphate]",mortality at 50 ppm,[1]; [19],100%
same,mortality at 250 ppm,[1]; [19],100%
same,mortality at 50 ppm,[2]; [20],100%
same,mortality at 250 ppm,[2]; [20],100%
same,mortality at 50 ppm,[3]; [21],0%
same,mortality at 250 ppm,[3]; [21],100%
same,mortality at 50 ppm,[4]; [22],100%
same,mortality at 250 ppm,[4]; [22],100%
same,mortality at 50 ppm,[5]; [23],100%
same,mortality at 250 ppm,[5]; [23],100%
same,mortality at 50 ppm,[6]; [24],100%
same,mortality at 250 ppm,[6]; [24],100%
"CCCSP(=O)(OCC)SCC[S+]([O-])C(C)C (stereo not drawn) [Example 8, O-Ethyl S-1-Propyl S'-2-i-Propylsulfinylethyl Dithiophosphate]","Nematode Control,% at 25 lb/acre",[7],75%
same,mortality at 250 ppm,[1]; [14],100%
same,mortality at 250 ppm,[11],90%
same,mortality at 250 ppm,[2]; [15],90%
same,mortality at 250 ppm,[3]; [29],100%
same,mortality at 250 ppm,[4]; [17],95%
CCOP(=O)(SCC)SCCSCC (stereo not drawn) [reference compound],LD50 at 336 h,[13],100 mg/kg
CCOP(=S)(OCC)SCC(C)SCC (stereo not drawn) [reference compound],LD50 at 336 h,[13],25 to 50 mg/kg
CCCSCCSP(=O)(OCC)SCCC (stereo not drawn) [2 (CIP)],LD50 at 336 h,[13],215 mg/kg
